Test results as given in PMC4871426, “The Regulation of para-Nitrophenol Degradation in Pseudomonas putida DLL-E4” (PLoS ONE, 2016).

Key:
PnpA = molecular target: T1, PnpA (Pseudomonas putida, UniProt C6FI48); test: colour change of PNP oxidation by purified enzyme; assay type: biochemical; details: conditions as in an earlier paper
T1 construct: His-tagged (pET-pnpAhis), expressed in E. coli BL21(DE3), purified
T1 sequence (C6FI48 1-418): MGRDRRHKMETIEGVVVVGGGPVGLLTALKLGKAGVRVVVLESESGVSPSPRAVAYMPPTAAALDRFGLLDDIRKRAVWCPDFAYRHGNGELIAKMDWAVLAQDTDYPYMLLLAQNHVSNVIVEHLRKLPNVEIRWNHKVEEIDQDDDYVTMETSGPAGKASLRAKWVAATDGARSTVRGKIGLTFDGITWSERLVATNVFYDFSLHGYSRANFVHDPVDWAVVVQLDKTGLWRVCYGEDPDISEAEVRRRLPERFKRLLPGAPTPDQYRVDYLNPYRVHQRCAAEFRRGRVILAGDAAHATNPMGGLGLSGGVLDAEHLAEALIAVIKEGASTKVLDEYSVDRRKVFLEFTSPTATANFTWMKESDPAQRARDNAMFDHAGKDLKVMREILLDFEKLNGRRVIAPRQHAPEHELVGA

PnpC1C2 = molecular target: T2, PnpC1C2 (Pseudomonas putida, UniProt C6FI41); test: UV spectral change, absorption increase at […] nm; assay type: biochemical; details: conditions as in an earlier paper
T2 construct: gene pnpC2; two-subunit complex, C-terminal His tag, expressed in E. coli BL21(DE3), Ni-NTA purified; with hydroquinone dioxygenase alpha subunit (hydroquinone 1,2-dioxygenase small subunit)
T2 sequence (C6FI41 1-339): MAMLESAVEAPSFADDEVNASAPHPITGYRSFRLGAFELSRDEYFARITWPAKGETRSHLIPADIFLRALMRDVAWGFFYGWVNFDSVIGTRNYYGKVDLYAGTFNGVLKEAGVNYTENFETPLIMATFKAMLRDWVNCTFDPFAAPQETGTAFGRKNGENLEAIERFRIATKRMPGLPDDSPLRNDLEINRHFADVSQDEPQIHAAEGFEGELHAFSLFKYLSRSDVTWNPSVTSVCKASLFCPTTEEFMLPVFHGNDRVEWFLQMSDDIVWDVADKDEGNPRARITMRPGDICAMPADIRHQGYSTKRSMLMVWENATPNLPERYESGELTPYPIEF
T2 sequence (C6FI40 1-164 partner): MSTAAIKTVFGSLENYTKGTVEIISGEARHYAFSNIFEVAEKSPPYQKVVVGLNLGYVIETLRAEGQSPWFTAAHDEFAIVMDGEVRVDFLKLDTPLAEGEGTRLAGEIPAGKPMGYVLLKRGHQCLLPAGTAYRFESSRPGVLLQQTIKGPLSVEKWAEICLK

O=[N+]([O-])c1ccc(O)cc1 [para-nitrophenol] was tested, and the “colour change of PNP oxidation by purified enzyme” value (PnpA) was “only PnpA had the ability to oxidize PNP”.

For Oc1ccc(O)cc1 [hydroquinone], the “UV spectral change, absorption increase at 320 nm” value (PnpC1C2) was “PnpC1C2 and PnpC1C2b both transformed HQ into γ-hydroxymuconic semialdehyde in vitro”.
